Source: patent US12139477B2, “Compounds, salts thereof and methods for treatment of diseases” (ACADIA PHARMACEUTICALS INC., priority 2017, dated 2024)

Tests used:
Assay type in all cases: cell-based
[1] = biological target: T1, 5HT2A (Homo sapiens, UniProt P28223); test: Beta-arrestin recruitment assay (Tango technology, antagonist mode); design: engineered protease cleavage site followed by tethered transcription factor (C); details: read-out: 5HT2A (pIC50) Beta-arrestin (converted)
Text: Beta-Arrestin Recruitment Assay:
Detecting GPCR Signaling Using the Tango Technology
GPCR signaling through beta-arrestin was detected by the Tango Technology at Thermofisher. This technology is based upon the interaction of intracellular beta-arrestin proteins and the target receptor. Upon ligand binding to the target receptor, the protease tagged arrestin is stimulated and recruited to the engineered protease site on the C-terminus of the GPCR, which triggers release of the tethered transcription factor. The free transcription factor then enters the nucleus and stimulates the beta-lactamase (bla) activity.
Test compounds are received at 1000× (or greater) of the desired starting concentration in 100% DMSO. The 1000× test compounds are serially diluted (10 point […] increments) in 100% DMSO.
Antagonist Assay Protocol:
An Agonist assay screen (see above) is run to obtain the EC80 concentration of the known activator to add in step 3.
1. 32 μL of cells diluted in Assay Media to appropriate cell density are added to the assay plate. If needed, cells are incubated at 37° C./5% CO2 for 6 or 16-24 hours (depending upon cell line specifics) before compound is added.
2. 40 nL of 1000× compound or known antagonist titration plus 4 μL of Assay Media is added to the cells in the assay plate and incubated for 30 minutes at 37° C./5% CO2 in a humidified incubator.
3. 4 μL of the 10×EC80 concentration of agonist, as determined in an Agonist assay, is added to all wells containing test compound and known inhibitor to bring the final assay volume to 40 μL.
4. 4 μL of Assay Media is added to remaining control wells to bring the volume up to 40 μL.
5. The assay plate is incubated for 5 or 16 hours (depending upon cell line specifics) at 37° C./5% CO2 in a humidified incubator.
6. 8 μL of the Substrate Loading Solution is added to the assay plate.
7. The assay plate is incubated for 2 hours at room temperature, in the dark.
8. The assay plate is read on a fluorescence plate reader (Tecan Safire2) and the data is analyzed.
SelectScreen Cell-Based GPCR Profiling Service uses XLfit from IDBS. The dose response curve is curve fit to model number 205 (sigmoidal dose-response model). Custom logic was built in-house for the data analysis tool to address the different compound characteristics that can be observed with functional assays. Using this logic the relative EC50/IC50 value for each given compound is provided.

[2] = biological target: T2, hERG channel (Homo sapiens, UniProt Q12809); test: hERG assay, whole cell recordings in CHO cells (AVIVA); details: CHO cells stably expressing hERG, pH 7.4
T2 construct: host or cells: CHO cells, stably transfected
Procedure: The most common mechanism for these adverse events is the inhibition of one or more cardiac potassium channels, in particular hERG. This current is important for cardiac myocyte repolarization and is a common target for drugs that prolong the QT interval. Test articles in this study were therefore characterized to determine their ability to inhibit the hERG channel. Ion channel activity was measured at AVIVA Biosciences Corporation (San Diego, CA), using a stably transfected Chinese Hamster Ovary (CHO) cell line expressing the hERG mRNA.
Cells: AVIVA's CHO cell line, which stably expresses hERG channels, was used for the study. Cells were cultured in DMEM/F12 containing 10% FBS, 1% penicillin/streptomycin and 500 μg/ml G418. Before testing, cells were harvested using Accumax (Innovative Cell Technologies).
Solutions: For electrophysiological recordings, the following solutions were used: External Solution: 2 mM CaCl2); 2 mM MgCl2; 4 mM KCl; 150 mM NaCl; 10 mM Glucose; 10 mM HEPES; 305-315 mOsm; pH 7.4 (adjusted with 5M NaOH); Internal Solution: 140 mM KCl; 10 mM MgCl2; 6 mM EGTA; 5 mM HEPES-Na; 5 mM ATP-Mg; 295-305 mOsm; pH 7.25 (adjusted with 1M KOH).
Electrophysiology: Whole cell recordings were performed using PX 7000A (Axon Instruments) with AVIVA's SealChip™ technology. Cells were voltage clamped at a holding potential of −80 mV. The hERG current was then activated by a depolarizing step to −50 mV for 300 ms. This first step at −50 mV was used as a baseline for measuring peak amplitude of the tail current. Next, a voltage step to +20 mV was applied for 5 s to activate the channels. Finally, a step back to −50 mV for 5 s removed activation and the deactivating tail current was recorded.
Test Article Handling and Dilutions: All test articles were prepared from 10 mM DMSO stock solutions provided by Sponsor. Solutions were mixed by sonication for 20 min, followed by vigorous vortexing. Prior to testing, compounds were diluted to test concentrations in glass vials using External Solution. Dilutions were prepared no longer than 20 min prior to use.
Electrophysiology Procedures: After achieving whole cell configuration, cells were monitored for 90 s to assess stability and then washed with External Solution for 66 s. The voltage protocol previously described was then applied to the cells every 12 s throughout the procedure. Only stable cells with recording parameters above threshold (see Quality Control section) were allowed to enter the drug addition procedure. External solution containing 0.1% DMSO (vehicle) was applied to the cells to establish a baseline. […] Test article solutions were added to cells in 4 separate additions. Cells were kept in test solution until effect of the test article reached steady state, to a maximum of 12 min. Next, 1 μM cisapride (positive control) was added. Finally, washout with External Solution was performed until the recovery current reached steady state.
Data Analysis: Data analysis was performed using DataXpress (Axon Instruments), Clampfit (Axon Instruments) and Origin (OriginLab Corporation) software.

[3] = biological target: T1, 5HT2A; test: Receptor Selection and Amplification (R-SAT) functional assay; design: expressed in transfected cells; host or cells: NIH3T3 cells, pSI mammalian expression vector; details: NIH3T3 cells; Ki from IC50 by Cheng and Prussoff; read-out: 5-HT2a (pKi) (R-SAT) (converted)
Text: Receptor Selection and Amplification (R-SAT) Assays. […] The IC50 determined in the RSAT assay was converted into a Ki value using the method of Cheng and Prussoff, Biochem Pharmacol., 1973 Dec. 1; 22(23):3099-108. pKi is the negative of the log(Ki).

T2 sequence (Q12809 whole entry): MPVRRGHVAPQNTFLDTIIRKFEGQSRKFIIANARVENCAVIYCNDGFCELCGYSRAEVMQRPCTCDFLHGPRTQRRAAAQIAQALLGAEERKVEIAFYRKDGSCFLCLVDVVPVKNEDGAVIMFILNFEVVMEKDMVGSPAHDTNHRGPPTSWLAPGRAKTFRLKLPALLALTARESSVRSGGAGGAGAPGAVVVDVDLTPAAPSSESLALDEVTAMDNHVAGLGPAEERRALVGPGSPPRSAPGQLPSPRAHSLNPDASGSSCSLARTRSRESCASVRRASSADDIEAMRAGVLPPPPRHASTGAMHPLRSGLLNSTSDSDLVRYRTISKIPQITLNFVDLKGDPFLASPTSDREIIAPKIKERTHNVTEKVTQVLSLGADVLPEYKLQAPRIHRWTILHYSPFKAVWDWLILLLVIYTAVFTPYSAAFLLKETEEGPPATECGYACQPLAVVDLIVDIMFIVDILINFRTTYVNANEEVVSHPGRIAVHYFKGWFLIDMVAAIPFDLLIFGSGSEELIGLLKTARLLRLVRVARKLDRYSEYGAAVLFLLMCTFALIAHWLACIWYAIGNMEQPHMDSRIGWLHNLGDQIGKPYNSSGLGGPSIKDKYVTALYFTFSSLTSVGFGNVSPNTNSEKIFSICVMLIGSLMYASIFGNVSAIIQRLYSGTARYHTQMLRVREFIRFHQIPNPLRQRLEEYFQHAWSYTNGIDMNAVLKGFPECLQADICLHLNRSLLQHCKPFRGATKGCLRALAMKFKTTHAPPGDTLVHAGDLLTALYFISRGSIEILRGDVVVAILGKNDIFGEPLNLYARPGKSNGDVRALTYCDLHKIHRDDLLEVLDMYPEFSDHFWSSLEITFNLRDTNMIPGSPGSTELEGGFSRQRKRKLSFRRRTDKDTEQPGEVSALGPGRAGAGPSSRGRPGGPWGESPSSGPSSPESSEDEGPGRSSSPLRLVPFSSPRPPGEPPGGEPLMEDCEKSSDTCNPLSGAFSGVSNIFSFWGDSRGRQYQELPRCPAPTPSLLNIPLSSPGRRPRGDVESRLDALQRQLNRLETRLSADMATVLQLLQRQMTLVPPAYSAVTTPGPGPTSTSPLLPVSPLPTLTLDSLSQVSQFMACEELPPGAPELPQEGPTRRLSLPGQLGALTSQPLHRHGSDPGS
T1 sequence (P28223 whole entry): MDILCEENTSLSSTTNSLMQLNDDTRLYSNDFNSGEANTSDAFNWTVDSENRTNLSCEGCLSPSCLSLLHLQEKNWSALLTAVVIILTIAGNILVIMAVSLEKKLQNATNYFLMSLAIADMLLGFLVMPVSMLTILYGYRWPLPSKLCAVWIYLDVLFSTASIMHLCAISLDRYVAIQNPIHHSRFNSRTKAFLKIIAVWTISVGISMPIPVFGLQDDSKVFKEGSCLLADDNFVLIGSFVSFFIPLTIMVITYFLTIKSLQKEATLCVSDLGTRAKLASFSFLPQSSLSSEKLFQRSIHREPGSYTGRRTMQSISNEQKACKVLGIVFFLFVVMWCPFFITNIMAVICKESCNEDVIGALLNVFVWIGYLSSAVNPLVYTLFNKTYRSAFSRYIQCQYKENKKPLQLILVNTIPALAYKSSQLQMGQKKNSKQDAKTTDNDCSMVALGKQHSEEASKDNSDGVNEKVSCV

| Structure (SMILES) | IC50 [1] [nM] | inhibition at 1 µM [2] [%] | Ki [3] [nM] |
| --- | --- | --- | --- |
| CC(C)Oc1ccc(CNC(=O)N(Cc2ccc([N+](=O)[O-])cc2F)C2CCN(C)CC2)cc1 [Example 44] | 158 | 70 | – |
| CN1CCC(N(Cc2ccc(F)cc2F)C(=O)NCc2ccc3cnn(C)c3c2)CC1 [Example 35] | 200 | – | – |
| CN1CCC(N(Cc2ccc(F)cc2F)C(=O)NCc2ccc3c(c2)CCC3)CC1 [Example 38] | 3.98 | – | – |
| Cc1noc2cc(CNC(=O)N(Cc3ccc(F)cc3F)C3CCN(C)CC3)ccc12 [Example 24] | 126 | 10 | – |
| CC(C)Oc1ccc(CNC(=O)N(Cc2ccc(C#N)cc2F)C2CCN(C)CC2)cc1 [Example 43] | 126 | 42 | – |
| Cc1cc2cc(CNC(=O)N(Cc3ccc(F)cc3F)C3CCN(C)CC3)ccc2n1C [Example 25] | 100 | – | – |
| CN1CCC(N(Cc2ccc(F)cc2F)C(=O)NCc2ccc3c(c2)CCS3(=O)=O)CC1 [Example 37] | 631 | 8 | – |
| CN1CCC(N(Cc2ccc(F)cc2F)C(=O)NCc2ccc3c(c2)OC(C)(C)C=C3)CC1 [Example 34] | 316 | – | – |
| Cc1cc2cc(CNC(=O)N(Cc3ccc(F)cc3F)C3CCN(C)CC3)ccc2[nH]1 [Example 36] | 25.1 | 29 | – |
| Cc1n[nH]c2ccc(CNC(=O)N(Cc3ccc(F)cc3F)C3CCN(C)CC3)cc12 [Example 42] | 251 | – | – |
| CN1CCC(N(Cc2ccc(F)cc2F)C(=O)NCc2ccc3ncccc3c2)CC1 [Example 27] | 79.4 | – | – |
| CN1CCC(N(Cc2ccc(F)cc2F)C(=O)NCc2ccc3ncsc3c2)CC1 [Example 39] | 15.8 | 21 | – |
| CN1CCC(N(Cc2ccc(F)cc2F)C(=O)NCc2ccc(OCC3CC3)cc2)CC1 [Example 141, 3-{[4-(cyclopropylmethoxy)phenyl]methyl}-1-[(2,4-difluorophenyl)methyl]-1-(1-methylpiperidin-4-yl)urea] | – | 42 | 0.631 |
| CN1CCC(N(Cc2ccc(F)cc2F)C(=O)NCc2ccc3c(c2)CCN3C)CC1 [Example 23] | 15.8 | 13 | – |
| CC(C)COc1ccc(CNC(=O)N(Cc2ccc(F)cc2)C2CCN(C)CC2)c(O)c1 [Example 14, 1-[(4-fluorophenyl)methyl]-3-{[2-hydroxy-4-(2-methylpropoxy)phenyl]methyl}-1-(1-methylpiperidin-4-yl)urea] | – | 77 | 1.58 |
| Cc1c[nH]c2ccc(CNC(=O)N(Cc3ccc(F)cc3F)C3CCN(C)CC3)cc12 [Example 21] | 200 | – | – |
| C=CCOc1ccc(CNC(=O)N(Cc2ccc(F)cc2F)C2CCN(C)CC2)cc1 [Example 19, 3-(4-(allyloxy)benzyl)-1-(2,4-difluorobenzyl)-1-(1-methylpiperidin-4-yl)urea] | – | 33 | 1.58 |
| CC(C)COc1ccc(CNC(=O)N(Cc2ccc(Cl)cc2Cl)C2CCN(C)CC2)cc1 [Example 107, 1-[(2,4-dichlorophenyl)methyl]-1-(1-methylpiperidin-4-yl)-3-{[4-(2-methylpropoxy)phenyl]methyl}urea] | – | 43 | 126 |
| CC(=O)Oc1cc(F)ccc1CN(C(=O)NCc1ccc(OCC(C)C)cc1)C1CCN(C)CC1 [Example 92, 5-fluoro-2-{[1-(1-methylpiperidin-4-yl)({[4-(2-methylpropoxy)-phenyl]methyl}carbamoyl)amino]methyl}phenyl acetate; Trifluoroacetic Acid] | – | 45 | 0.316 |
| CC(C)Oc1ccc(CNC(=O)N(Cc2ccc(F)cc2F)C2CCNCC2)cc1 [Example 142, 1-[(2,4-difluorophenyl)methyl]-1-(piperidin-4-yl)-3-{[4-(propan-2-yloxy)phenyl]methyl}urea] | – | 8 | 1 |
| O=C(O)C(F)(F)F.[2H]C([2H])([2H])C(N1CCC(N(Cc2ccc(F)cc2F)C(=O)NCc2ccc(OC(C)C)cc2)CC1)C([2H])([2H])[2H] [Example 75, 1-[(2,4-difluorophenyl)methyl]-1-{1-[(1,1,1,3,3,3-^2H6)propan-2-yl]piperidin-4-yl}-3-{[4-(propan-2-yloxy)phenyl]methyl}urea; Trifluoroacetic Acid] | 3.98 | – | – |
